Laboratory results published in PubChem BioAssay (NCI).
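Dose response: 5 concentrations. Exposure: 48 h. Format: 96-well plates. Endpoint: linear interpolation; highest concentration if not reached. Here, GI50 denotes the concentration required for 50% inhibition of growth. Definition used: TGI = concentration required for complete inhibition of growth.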

Assays:
Assay in all cases: NCI anticancer screen, dose series, 48 h
NCI/ADR-RES ovarian = test system: NCI/ADR-RES ovarian
DU-145 prostate = test system: DU-145 prostate
BT-549 breast = test system: BT-549 breast
MCF7 breast = test system: MCF7 breast
MDA-MB-231 breast = test system: MDA-MB-231 breast

With ClCc1ccc(-c2ccc(Cn3cnc4c(Cl)nc(Cl)nc43)cc2)cc1 the GI50 (NCI/ADR-RES ovarian) was 2.5 µM, the TGI (NCI/ADR-RES ovarian) was 7.55 µM and the GI50 (DU-145 prostate) was 1.58 µM. It also gave a TGI (DU-145 prostate) of 2.94 µM, a GI50 (BT-549 breast) of 3.71 µM and a TGI (BT-549 breast) of 15.5 µM. The GI50 (MCF7 breast) was 1.69 µM, the TGI (MCF7 breast) was 3.51 µM and the GI50 (MDA-MB-231 breast) was 2.76 µM. It also gave a TGI (MDA-MB-231 breast) of 7.14 µM.
In the case of COc1cc(/C=C2\CN(C)C/C(=C\c3cc(OC)c(OC)c(OC)c3)C2=O)cc(OC)c1OC, the GI50 (NCI/ADR-RES ovarian) is reported as 0.349 µM, the TGI (NCI/ADR-RES ovarian) is reported as greater than 100 µM and the GI50 (DU-145 prostate) is reported as 0.355 µM. It also gave a TGI (DU-145 prostate) of 1.22 µM, a GI50 (BT-549 breast) of 0.295 µM and a TGI (BT-549 breast) of 0.923 µM. The GI50 (MCF7 breast) was 0.317 µM, the TGI (MCF7 breast) was 1.83 µM and the GI50 (MDA-MB-231 breast) was 0.336 µM. It also gave a TGI (MDA-MB-231 breast) of 1.03 µM.
In the case of NC(CNO)C(=O)O (stereo unspecified), the TGI (NCI/ADR-RES ovarian) is reported as greater than 100 µM, the TGI (DU-145 prostate) is reported as greater than 100 µM and the TGI (BT-549 breast) is reported as greater than 100 µM. It also gave a TGI (MCF7 breast) greater than 100 µM and a TGI (MDA-MB-231 breast) greater than 100 µM.
Work on CCOC(=O)c1ccc(N(CCOS(C)(=O)=O)CCOS(C)(=O)=O)cc1C yielded a GI50 (NCI/ADR-RES ovarian) of 23.7 µM, a TGI (NCI/ADR-RES ovarian) of 66.9 µM and a GI50 (DU-145 prostate) of 18.4 µM. For the same molecule, the TGI (DU-145 prostate) was 38.9 µM, the GI50 (BT-549 breast) was 34.1 µM and the TGI (BT-549 breast) was greater than 100 µM. The GI50 (MCF7 breast) was 17.5 µM, the TGI (MCF7 breast) was greater than 100 µM and the GI50 (MDA-MB-231 breast) was 77.9 µM. It also gave a TGI (MDA-MB-231 breast) greater than 100 µM.
For CN[C@]12CC3(C=CC(=O)C=C3)O[C@@]1(Cc1ccc(OC)cc1)N(C)C(=O)N2, the GI50 (NCI/ADR-RES ovarian) was 3.46 µM, the TGI (NCI/ADR-RES ovarian) was greater than 100 µM and the GI50 (DU-145 prostate) was 4.3 µM. For the same molecule, the TGI (DU-145 prostate) was 14.9 µM, the GI50 (BT-549 breast) was 1.52 µM and the TGI (BT-549 breast) was 4.22 µM. The GI50 (MCF7 breast) was 0.778 µM, the TGI (MCF7 breast) was 15.1 µM and the GI50 (MDA-MB-231 breast) was 4.2 µM. The TGI (MDA-MB-231 breast) was 15.1 µM.
Work on Cn1ncc2c(/N=C/c3cccs3)[nH]c(=S)nc21 yielded a GI50 (NCI/ADR-RES ovarian) greater than 100 µM, a TGI (NCI/ADR-RES ovarian) greater than 100 µM and a GI50 (DU-145 prostate) of 25.6 µM. For the same molecule, the TGI (DU-145 prostate) was greater than 70.5 µM, the GI50 (BT-549 breast) was 33.2 µM and the TGI (BT-549 breast) was greater than 91.3 µM. The GI50 (MCF7 breast) was 27.4 µM, the TGI (MCF7 breast) was greater than 80.3 µM and the GI50 (MDA-MB-231 breast) was 20.3 µM. The TGI (MDA-MB-231 breast) was greater than 67.5 µM.
COC(=O)C(C)NP(=O)(OCc1ccc(Cn2cnc3c(=O)[nH]c(N)nc32)cc1)Oc1ccccc1 (stereo unspecified) showed a GI50 (NCI/ADR-RES ovarian) greater than 100 µM, a TGI (NCI/ADR-RES ovarian) greater than 100 µM and a GI50 (DU-145 prostate) greater than 100 µM. It also gave a TGI (DU-145 prostate) greater than 100 µM, a GI50 (BT-549 breast) greater than 100 µM and a TGI (BT-549 breast) greater than 100 µM. It also gave a GI50 (MCF7 breast) greater than 100 µM, a TGI (MCF7 breast) greater than 100 µM and a GI50 (MDA-MB-231 breast) greater than 100 µM. It also gave a TGI (MDA-MB-231 breast) greater than 100 µM.
Molecule O=C1OCc2c1cc(F)cc2[N+](=O)[O-] has a GI50 (NCI/ADR-RES ovarian) greater than 100 µM, a TGI (NCI/ADR-RES ovarian) greater than 100 µM and a GI50 (DU-145 prostate) greater than 100 µM. It also gave a TGI (DU-145 prostate) greater than 100 µM, a GI50 (BT-549 breast) greater than 100 µM and a TGI (BT-549 breast) greater than 100 µM. For the same molecule, the GI50 (MCF7 breast) was greater than 100 µM, the TGI (MCF7 breast) was greater than 100 µM and the GI50 (MDA-MB-231 breast) was greater than 100 µM. For the same molecule, the TGI (MDA-MB-231 breast) was greater than 100 µM.
For COc1cc(/C=C/C(=O)c2ccc(Nc3ncnc4ccccc34)cc2)cc(OC)c1, the GI50 (NCI/ADR-RES ovarian) was 6.52 µM, the TGI (NCI/ADR-RES ovarian) was greater than 100 µM and the GI50 (DU-145 prostate) was 6.71 µM. The TGI (DU-145 prostate) was 22.2 µM, the GI50 (BT-549 breast) was 3.34 µM and the TGI (BT-549 breast) was 11.9 µM. The GI50 (MCF7 breast) was 1.84 µM, the TGI (MCF7 breast) was 5.79 µM and the GI50 (MDA-MB-231 breast) was 13.5 µM. For the same molecule, the TGI (MDA-MB-231 breast) was 49.1 µM.
In the case of CCOC(=O)c1c(-c2ccccc2)[n+](=O)c2ccc(Cl)cc2n1[O-], the GI50 (NCI/ADR-RES ovarian) is reported as 5.27 µM, the TGI (NCI/ADR-RES ovarian) is reported as 18.1 µM and the GI50 (DU-145 prostate) is reported as 3.22 µM. The TGI (DU-145 prostate) was 11.9 µM, the GI50 (BT-549 breast) was 3.87 µM and the TGI (BT-549 breast) was 15.7 µM. It also gave a GI50 (MCF7 breast) of 5.37 µM, a TGI (MCF7 breast) of 40.6 µM and a GI50 (MDA-MB-231 breast) of 3.58 µM. It also gave a TGI (MDA-MB-231 breast) of 13.8 µM.
COc1ccc2c(c1)CCc1c(-c3noc4c3CCc3cc(OC)ccc3-4)noc1-2 showed a TGI (NCI/ADR-RES ovarian) greater than 100 µM, a TGI (DU-145 prostate) greater than 100 µM and a TGI (BT-549 breast) greater than 100 µM. The TGI (MCF7 breast) was greater than 100 µM and the TGI (MDA-MB-231 breast) was greater than 100 µM.
With C=C1C(=O)O[C@H]2[C@H]1CC/C(COC(=O)CCCCCCCCC(=O)OC/C1=C/CC[C@@]3(C)O[C@H]3[C@H]3OC(=O)C(=C)[C@@H]3CC1)=C\CC[C@@]1(C)O[C@@H]21 the GI50 (NCI/ADR-RES ovarian) was 3.14 µM, the TGI (NCI/ADR-RES ovarian) was 13.5 µM and the GI50 (DU-145 prostate) was 2.03 µM. It also gave a TGI (DU-145 prostate) of 4.2 µM, a GI50 (BT-549 breast) of 1.54 µM and a TGI (BT-549 breast) of 3.22 µM. The GI50 (MDA-MB-231 breast) was 1.92 µM and the TGI (MDA-MB-231 breast) was 3.79 µM.
In the case of Nc1ncnc2c1nc(-c1ccccc1)n2C1OC(CO)C(O)C1O (stereo unspecified), the TGI (NCI/ADR-RES ovarian) is reported as greater than 100 µM, the TGI (DU-145 prostate) is reported as greater than 100 µM and the TGI (BT-549 breast) is reported as greater than 100 µM. For the same molecule, the TGI (MCF7 breast) was greater than 100 µM and the TGI (MDA-MB-231 breast) was greater than 100 µM.
COc1cc(C#N)cc(OC)c1OCCOCCOc1c(OC)cc(C#N)cc1OC was tested, and the GI50 (NCI/ADR-RES ovarian) was 24.8 µM, the TGI (NCI/ADR-RES ovarian) was greater than 100 µM and the GI50 (DU-145 prostate) was greater than 100 µM. The TGI (DU-145 prostate) was greater than 100 µM, the GI50 (BT-549 breast) was 25.3 µM and the TGI (BT-549 breast) was 73.2 µM. It also gave a GI50 (MCF7 breast) of 63.4 µM, a TGI (MCF7 breast) greater than 100 µM and a GI50 (MDA-MB-231 breast) of 88.9 µM. The TGI (MDA-MB-231 breast) was greater than 100 µM.
For CN1CCC[C@@H]1CCO[C@](C)(c1ccccc1)c1ccc(Cl)cc1, the GI50 (NCI/ADR-RES ovarian) was 7.55 µM, the TGI (NCI/ADR-RES ovarian) was 21.7 µM and the GI50 (DU-145 prostate) was 12.6 µM. The TGI (DU-145 prostate) was 25.2 µM, the GI50 (BT-549 breast) was 9.64 µM and the TGI (BT-549 breast) was 22.4 µM. The GI50 (MCF7 breast) was 2.98 µM, the TGI (MCF7 breast) was 11.7 µM and the GI50 (MDA-MB-231 breast) was 2.79 µM. It also gave a TGI (MDA-MB-231 breast) of 13.5 µM.
CN(C)CCCN(c1nc(C(Cl)(Cl)Cl)ns1)c1nc(C(Cl)(Cl)Cl)ns1 was tested, and the GI50 (NCI/ADR-RES ovarian) was 1.89 µM, the TGI (NCI/ADR-RES ovarian) was 4.41 µM and the GI50 (DU-145 prostate) was 2.75 µM. It also gave a TGI (DU-145 prostate) of 6.79 µM, a GI50 (MCF7 breast) of 1.9 µM and a TGI (MCF7 breast) of 3.62 µM. For the same molecule, the GI50 (MDA-MB-231 breast) was 1.19 µM and the TGI (MDA-MB-231 breast) was 2.6 µM.
With C/C(CC(=O)NNc1ccc([N+](=O)[O-])cc1)=N\Nc1ccc([N+](=O)[O-])cc1 the GI50 (NCI/ADR-RES ovarian) was 15.1 µM, the TGI (NCI/ADR-RES ovarian) was greater than 100 µM and the GI50 (DU-145 prostate) was 17.4 µM. For the same molecule, the TGI (DU-145 prostate) was 89.9 µM, the GI50 (MCF7 breast) was 12.9 µM and the TGI (MCF7 breast) was greater than 100 µM. The GI50 (MDA-MB-231 breast) was 2.12 µM and the TGI (MDA-MB-231 breast) was 19.7 µM.
With Oc1ccc(CNCc2ccccc2)c2cccnc12 the TGI (NCI/ADR-RES ovarian) was 16.9 µM, the TGI (DU-145 prostate) was 38.4 µM and the TGI (BT-549 breast) was greater than 100 µM. It also gave a TGI (MCF7 breast) greater than 100 µM.
With Cc1ccc(S(=O)(=O)/N=c2\ssc(Nc3ccccc3)c2Cl)cc1 the GI50 (NCI/ADR-RES ovarian) was 10.1 µM, the TGI (NCI/ADR-RES ovarian) was 27.6 µM and the GI50 (DU-145 prostate) was 7.74 µM. It also gave a TGI (DU-145 prostate) of 27.6 µM, a GI50 (BT-549 breast) of 5.27 µM and a TGI (BT-549 breast) of 17 µM. The GI50 (MDA-MB-231 breast) was 9.84 µM and the TGI (MDA-MB-231 breast) was 26 µM.
